Assay results reported in US7615527B2, “Peptides which modulate blood coagulation and methods of use thereof” (Oregon Health & Science University, priority 2001, dated 2009).
Square brackets hold non-standard residues; d marks the D form. Ends that are not written are not given here. Peptide text beside a SMILES is read from it. pY = N[C@@H](Cc1ccc(OP(=O)(O)O)cc1)C(=O)O

Legend:
[1] = target: thrombin (Homo sapiens, UniProt P00734); details: prior studies by others (43); read-out: Ki, direct inhibitory activity towards thrombin; cited from earlier work
[2] = target: T1, α-thrombin (Homo sapiens, UniProt P00734); test: Competitive binding assay: α-thrombin binding to fluoresceinated γ′ 408-427 peptide; parameters: incubating 2 nM fluoresceinated peptide with 2 μM α-thrombin; thrombin: gift of Dr. John Fenton, II and Dr. Walter Kisiel; tracer peptide: Research Genetics; details: 2 nM fluoresceinated peptide with 2 μM α-thrombin
Source text: Proteins, Peptides, and DNA Aptamers. Human α-thrombin was generously provided by Dr. John Fenton, II (New York State Department of Health, Albany, N.Y.) and Dr. Walter Kisiel (University of New Mexico, Albuquerque, N. Mex.). Human γ-thrombin was obtained from Haematologic Technologies, Inc. (Essex Junction, Vt.). Tyrosine-phosphorylated derivatives of peptides corresponding to the γ′ chain carboxyl terminus, […] (SEQ ID NO: 11), were obtained from Research Genetics, Inc. (Huntsville, Ala.) and GeneMed Synthesis, Inc. (South San Francisco, Calif.). The peptides were purified to >95% purity by HPLC, and their molecular weights were verified by mass spectrometry. Tyrosine-sulfated, amino-terminal acetylated hirudin peptide 53-65 was obtained from Bachem, Inc. (Torrance, Calif.) and tyrosine-sulfated hirudin peptide 54-65 was obtained from Sigma (St. Louis, Mo.). Single-stranded DNA aptamers 5′-GGT-TGG-TGT-GGT-TGG-3′ (SEQ ID NO: 5), referred to as HD1, and 5′-AGT-CCG-TGG-TAG-GGC-AGG-TTG-GGG-TGA-CT-3′ (SEQ ID NO: 6), referred to as HD22, were generously provided by Dr. Jeffrey I. Weitz (McMaster University, Hamilton, ONT, Canada). A monoclonal antibody directed against thrombin exosite II (34) was a gift from Dr. Douglas M. Tollefsen (Washington University, St. Louis, Mo.). Production of Recombinant Fibrinogens Recombinant fibrinogen molecules were expressed with tyrosine to phenylalanine mutations in the γ′ chain at positions γ′ 418 and/or γ′ 422. Plasmid pAG-γ′ (10) was used as the template for site-directed mutagenesis (35) using the primer GAA-ACA-GAA-TTT-GAC-TCA-CTT (SEQ ID NO: 7) for Y418F, GAC-TCA-CTT-TTC-CCT-GAG-GAT (SEQ ID NO: 8) for Y422F, and GAA-ACA-GAA-TTT-GAC-TCA-CTT-TTC-CCT-GAG-GAT (SEQ ID NO: 9) for Y418F/Y422F. The mutated pAG-γ′ plasmids were co-transfected with pBD-1 into a baby hamster kidney cell line as described previously (10). Recombinant fibrinogens were labeled with 1 mCi/ml ^35SO4 in serum-free medium and immunoprecipitated from the medium using a rabbit polyclonal anti-fibrinogen antiserum (Accurate Chemical and Scientific Corp., Westbury, N.Y.) as described previously (10). The amount of fibrinogen secreted during the labeling was determined using an ELISA described previously (10). Identical amounts of radiolabeled fibrinogens (300 ng) were resolved by SDS-polyacrylamide gel electrophoresis on 10% gels under reducing conditions (36) and exposed to X-ray film. Thrombin/γ′ Peptide Binding Assay. To quantitate the binding of thrombin to the γ′ chain carboxyl terminus, 50 nM […]-Y (PO3)-DSL-Y (PO3)—PEDDL (SEQ ID NO: 10) peptide (Research Genetics), corresponding to the carboxyl terminal twenty amino acids of the γ′ chain, was labeled for 1 hour at 37° C. with a 5-fold molar excess of fluorescein succinimidyl ester (PanVera) in 100 mM potassium phosphate, pH 7.0 as per the manufacturer's protocol. Unreacted fluorescein succinimidyl ester was reacted with 100 mM Tris, pH 8.0 for 30 minutes and removed by desalting the fluoresceinated peptide on Sephadex G-15 in 137 mM NaCl/2.7 mM KCl/10 mM HEPES, pH 7.4. 2 nM fluoresceinated peptide was incubated with the indicated concentrations of thrombin for 30 seconds at 22° C. in 50 μg/ml BSA/137 mM NaCl/2.7 mM KCl/10 mM HEPES, pH 7.4. Fluorescence polarization was measured following excitation at 488 nm and emission at 535 nm. The data are fit to the equation: y=x/(b+x) where y is fit to x, using “x” as the concentration of thrombin and “b” as the Kd.
Competitive binding assays were performed by incubating 2 nM fluoresceinated peptide with 2 μM α-thrombin in the presence of the indicated concentrations of competing ligand. Fluorescence polarization was measured following excitation at 488 nm and emission at 535 nm.

[3] = target: T1, α-thrombin; test: Thrombin/γ′ peptide binding assay (fluorescence polarization); parameters: Human α-thrombin; gift: Dr. John Fenton, II (New York State Department of Health) and Dr. Walter Kisiel (University of New Mexico); details: 2 nM fluoresceinated peptide, 22° C., pH 7.4, read-out: Kd, binding of α-thrombin to fluoresceinated γ′ 408-427 peptide
Source text: Proteins, Peptides, and DNA Aptamers. Human α-thrombin was generously provided by Dr. John Fenton, II (New York State Department of Health, Albany, N.Y.) and Dr. Walter Kisiel (University of New Mexico, Albuquerque, N. Mex.). Human γ-thrombin was obtained from Haematologic Technologies, Inc. (Essex Junction, Vt.). Tyrosine-phosphorylated derivatives of peptides corresponding to the γ′ chain carboxyl terminus, […] (SEQ ID NO: 11), were obtained from Research Genetics, Inc. (Huntsville, Ala.) and GeneMed Synthesis, Inc. (South San Francisco, Calif.). The peptides were purified to >95% purity by HPLC, and their molecular weights were verified by mass spectrometry. […] The amount of fibrinogen secreted during the labeling was determined using an ELISA described previously (10). […] To quantitate the binding of thrombin to the γ′ chain carboxyl terminus, 50 nM […]-Y (PO3)-DSL-Y (PO3)—PEDDL (SEQ ID NO: 10) peptide (Research Genetics), corresponding to the carboxyl terminal twenty amino acids of the γ′ chain, was labeled for 1 hour at 37° C. with a 5-fold molar excess of fluorescein succinimidyl ester (PanVera) in 100 mM potassium phosphate, pH 7.0 as per the manufacturer's protocol. […] Fluorescence polarization was measured following excitation at 488 nm and emission at 535 nm. […]

[4] = target: T1, α-thrombin; test: Thrombin inhibition assay (ATIII, with or without heparin, Chromozym TH); assay type: biochemical; parameters: incubating 2 nM fluoresceinated peptide with 2 μM α-thrombin; thrombin: gift of Dr. John Fenton, II and Dr. Walter Kisiel; tracer peptide: Research Genetics
Description: Thrombin Inhibition Assay. […] In some experiments, 0.33 μM heparin (Sigma) was included in the reaction. The inhibition reaction was terminated by the addition of 0.3 ml of a vast molar excess of substrate, 1.25 mg/ml Chromozym TH (Boehringer Mannheim, Indianapolis, Ind.), and the remaining thrombin activity was subsequently measured by monitoring the absorbance at 405 nm for 15 minutes at 22° C. Results Two Tyrosine Residues in the γ′ Chain Are Sulfated. […] Since the γ′ chain differs from the γA chain only in its carboxyl terminal 20 amino acids, it has been assumed that the sulfated residues are within this 20 amino acid sequence, although the addition of the γ′ sequence could also induce conformational changes in the γ chain that expose new sites for sulfation upstream of the carboxyl terminus. […] The carboxyl terminus of the γ′ chain contains two potential sites for tyrosine sulfation at positions γ′ Y418 and γ′ Y422. […] However, no direct evidence of sulfation at γ′ Y418 or γ′ Y422 was presented. Furthermore, in both bovine and rat fibrinogen, the γ′ chain terminates at the equivalent of γ′ 420, prior to γ′ Y422 (37, 38). The rat γ′ chain does, however, contain sulfotyrosine (39). […]

[5] = tested on: normal human reference plasma; test: Activated partial thromboplastin time (aPTT) assay in human plasma; assay type: biochemical; details: human plasma; 0-1 mM peptide
Description: Activated Partial Thromboplastin Time (aPTT) Assay. This anti-coagulation assay was chosen for testing the γ′ peptides due to its sensitivity to heparin-like compounds, its ease of use, and the ability to automate the procedure. An MLA 1600 instrument (Organon Teknika) was used to quantitate the effect of the γ′ peptides on the aPTT, using the manufacturer's protocol. Briefly, 0-1 mM γ′ peptides or 0-10 units/ml unfractionated heparin was added to 50 μl of normal reference plasma (Ortho) and manually loaded into the MLA 1600. The MLA 1600 added SynthASil aPTT reagent (Ortho) to initiate clotting, and clot formation was monitored spectrophotometrically for 106 seconds. […] Prothrombin Time/International Normalized Ratio Assay. This clotting assay is less sensitive to heparin than the aPTT, and may be used to determine if a γ′ peptide is capable of prolonging the prothrombin time (PT) to the same extent as the 3 aPTT. One-stage PT assays may be performed using an MLA 1600 instrument according to the manufacturer's protocol. Briefly, 0-1 mM γ′ peptide or scrambled peptide or 0-10 units/ml unfractionated heparin may be added to 50 μl of normal reference plasma (Ortho) and manually loaded into the MLA 1600. The MLA 1600 may be used to add recombinant thromboplastin (Recombiplastin, Ortho) to initiate clotting, and clot formation monitored spectrophotometrically for 106 seconds. If a clot is not generated within 106 seconds, the MLA will automatically extend the observation time to 212 seconds.
An aPTT assay was performed using human plasma to determine the effect of γ′ peptide on the clotting time in this system. […] The MLA 1600 added SynthASil aPTT reagent (Ortho) to initiate clotting and clot formation was monitored spectrophotometrically for 106 seconds. […]
An aPTT assay was performed using human plasma to determine the effect of γ′ deletion peptides on the clotting time in this system. […] The MLA 1600 added SynthASil aPTT reagent (Ortho) to initiate clotting and clot formation was monitored spectrophotometrically for 106 seconds. […]

## VRPEHPAETEYDSLYPEDDL [nonphosphorylated peptide]
[1]
  Ki: 130000 nM
[2]
  Inhibition of α-thrombin binding to fluoresceinated γ′ 408-427 peptide (in words): completely inactive

## 5′-AGT-CCG-TGG-TAG-GGC-AGG-TTG-GGG-TGA-CT-3′ [HD22, reference compound]
[2]
  Inhibition of α-thrombin binding to fluoresceinated γ′ 408-427 peptide (in words): more potent competitor than HD1

## CC(C)C[C@H](NC(=O)[C@H](CC(=O)O)NC(=O)[C@H](CC(=O)O)NC(=O)[C@H](CCC(=O)O)NC(=O)[C@@H]1CCCN1C(=O)[C@H](Cc1ccc(OP(=O)(O)O)cc1)NC(=O)[C@H](CC(C)C)NC(=O)[C@H](CO)NC(=O)[C@H](CC(=O)O)NC(=O)[C@H](Cc1ccc(OP(=O)(O)O)cc1)NC(=O)[C@H](CCC(=O)O)NC(=O)[C@@H](NC(=O)[C@H](CCC(=O)O)NC(=O)[C@H](C)NC(=O)[C@@H]1CCCN1C(=O)[C@H](Cc1c[nH]cn1)NC(=O)[C@H](CCC(=O)O)NC(=O)[C@@H]1CCCN1C(=O)[C@H](CCCNC(=N)N)NC(=O)[C@@H](N)C(C)C)[C@@H](C)O)C(=O)O [γ′ 408-427] (H-VRPEHPAETE[pY]DSL[pY]PEDDL-OH; N-terminus and C-terminus assumed)
[3]
  Kd: 430 ± 80 nM
[2]; read-out: Ki, competition for α-thrombin binding to fluoresceinated γ′ 408-427 peptide
  Ki: 520 ± 140 nM
[4]; 0.33 μM heparin, 13.7 nM ATIII, 0-1.0 mM γ′ peptide, 15 minutes
  Effect on heparin's acceleration of thrombin inhibition by ATIII: antagonized the accelerative activity of heparin in a dose-dependent manner
[4]; concentrations up to 1 mM, data not shown
  Direct inhibition of thrombin: not directly inhibitory

## EY(*)DSLY(*)PEDDL (EYDSLYPEDDL; not fully specified (residues 2, 6); printed as EY(*)DSLY(*)PEDDL) [peptide 417-427]
[5]
  Anticoagulant effect in aPTT (in words): further reduction in activity
[2]
  Inhibition of α-thrombin binding to fluoresceinated γ′ 408-427 peptide (in words): completely inactive

## AETEY(*)DSLY(*)PEDDL (AETEYDSLYPEDDL; not fully specified (residues 5, 9); printed as AETEY(*)DSLY(*)PEDDL) [peptide 414-427]
[5]
  Anticoagulant effect in aPTT (in words): reduced level of anticoagulant activity
[2]
  Inhibition of α-thrombin binding to fluoresceinated γ′ 408-427 peptide (in words): lower affinity

## VRPEHPAETEY(*)DSLY(*)PE (VRPEHPAETEYDSLYPE; not fully specified (residues 11, 15); printed as VRPEHPAETEY(*)DSLY(*)PE) [peptide 408-424]
[2]
  Inhibition of α-thrombin binding to fluoresceinated γ′ 408-427 peptide (in words): lower affinity
